This passage reports Efficacy, chromatographic logP and logP results from patent US9617286B2, “Fungicide N-[(trisubstitutedsilyl)methyl]-carboxamide derivatives” (BAYER INTELLECTUAL PROPERTY GMBH, priority 2011, dated 2017).

The structures appear in SMILES notation.

Data set [1] has as its system Pyrenophora teres. The experiment in a line: In vivo preventive test on Pyrenophora teres (barley). The note with it: preventive spray (DMF/alkylaryl polyglycol ether), 500 ppm of active ingredient, evaluated 7-9 days after inoculation. A digest of the protocol:
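Young barley plants sprayed preventively with compound in DMF/emulsifier diluted in water, then inoculated one day later with aqueous P. teres spore suspension. Held 48 h at 22 °C and 100% relative humidity, then greenhouse at about 20 °C and 80% humidity.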

The next data set deals with Septoria tritici. The experiment in a line: In vivo preventive test on Septoria tritici (wheat). The following applies: preventive spray, 500 ppm of active ingredient, grading 24 days after contamination. The procedure, abridged:
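Wheat (Scipion) at the 1-leaf stage was sprayed with compound, then inoculated 24 h later with Septoria tritici spores (500 000 spores/mL). Plants were held 72 h at 18 °C, 100% RH, then 21 days at 90% RH. Efficacy (%) was graded 24 days post-inoculation versus solvent-treated controls.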

The next data set relates to Puccinia recondita. As to the kind of experiment: In vivo preventive test on Puccinia recondita (brown rust on wheat). The note with it: preventive spray, 500 ppm of active ingredient, grading 12 days after contamination. A digest of the protocol: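 Wheat (Scipion) at the 1-leaf stage was sprayed with compound and inoculated 24 h later with P. recondita spores (100 000 spores/mL). Plants were held 24 h at 20° C/100% RH, then 10 days at 20° C/70-80% RH. Efficacy (%) was graded 12 days post-inoculation against solvent-treated controls.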

The test system of data set [2] is Pyrenophora teres. The experiment in a line: In vivo preventive test on Pyrenophora teres (barley) - 2nd test. The note with it: 2nd test (acetone/tween/DMSO), 500 ppm of active ingredient, grading 14 days after contamination. As to the method: Barley plants (“Plaisant” variety), sown in starter cups on a 50/50 peat soil pozzolana substrate and grown at 22° C., are treated at the 1 leaf stage (10 cm height) by spraying with the active ingredient prepared as described above. Plants, used as controls, are treated with the mixture of acetone/tween/DMSO/water not containing the active material. After 24 hours, the plants are contaminated by spraying the leaves with an aqueous suspension of Pyrenophora teres spores (12 000 spores per mL). The spores are collected from a 12-day-old culture. The contaminated barley plants are incubated for 48 hours at 20° C. and at 100% relative humidity, and then for 12 days at 20° C. at 70-80% relative humidity. Grading (% of efficacy) is carried out 14 days after the contamination, in comparison with the control plants.

In the next data set the test system is Botrytis cinerea. The experiment in a line: In vivo preventive test on Botrytis cinerea (grey mould) - 2nd test. The following applies: gherkin plants, 2nd test (acetone/tween/DMSO), 500 ppm of active ingredient, grading 4 to 5 days after contamination. How it is done: Gherkin plants (“Vert petit de Paris” variety), sown in starter cups on a 50/50 peat soil pozzolana substrate and grown at 24° C., are treated at the Z11 cotyledon stage by spraying with the active ingredient prepared as described above. Plants, used as controls, are treated with the mixture of acetone/tween/DMSO/water not containing the active material. After 24 hours, the plants are contaminated by spraying the cotyledons with an aqueous suspension of cryopreserved Botrytis cinerea spores (50 000 spores per mL). The spores are suspended in a nutrient solution composed of 10 g/L of PDB, 50 g/L of D-Fructose, 2 g/L of NH4NO3 and 1 g/L of KH2PO4. The contaminated gherkin plants are incubated at 17° C. and at 90% relative humidity. Grading (% of efficacy) is carried out 4 to 5 days after the contamination, in comparison with the control plants.

Data set [3] is described as follows: log P by HPLC on reversed-phase column (C 18), EEC Directive 79/831 Annex V.A8. The class given is physicochemical. The following applies: 40° C., 0.1% aqueous formic acid and acetonitrile, linear gradient 10% to 90% acetonitrile. The procedure, abridged:
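Reversed-phase C18 HPLC at 40° C, 0.1% aqueous formic acid/acetonitrile gradient from 10% to 90% acetonitrile. log P derived from retention times by linear interpolation between unbranched alkan-2-ones (3–16 carbons) of known log P.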

A further data set has as its system Uromyces appendiculatus. The experiment in a line: In vivo preventive test on Uromyces appendiculatus (bean rust). The following applies: bean plants, preventive spray, 500 ppm of active ingredient, grading 11 days after contamination. How it is done:
Bean plants (“Saxa” variety), sown in starter cups on a 50/50 peat soil pozzolana substrate and grown at 24° C., are treated at the 2 leaf stage (9 cm height) by spraying with the active ingredient prepared as described above. Plants, used as controls, are treated with the mixture of acetone/tween/DMSO/water not containing the active material. After 24 hours, the plants are contaminated by spraying the leaves with an aqueous suspension of Uromyces appendiculatus spores (150 000 spores per mL). The spores are collected from infected plants and are suspended in water containing 2.5 mL/L of Tween 80 at 10%. The contaminated bean plants are incubated for 24 hours at 20° C. and at 100% relative humidity, and then for 10 days at 20° C. and at 70-80% relative humidity. Grading (% of efficacy) is carried out 11 days after the contamination, in comparison with the control plants.

The subject of the next data set is Sphaerotheca fuliginea. The experiment in a line: In vivo preventive test on Sphaerotheca fuliginea (powdery mildew on cucurbits). The note with it: gherkin plants, preventive spray, 500 ppm of active ingredient, grading 12 days after contamination. A digest of the protocol: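 Gherkin plants at cotyledon stage Z11 were sprayed with compound and inoculated 24 h later with Sphaerotheca fuliginea spores (100 000 spores per mL). Incubation was at about 20 °C and 70–80% relative humidity. Efficacy (%) was graded 12 days post-inoculation against solvent-treated controls.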

The subject of another data set is Alternaria solani. As to the kind of experiment: In vivo preventive test on Alternaria solani (tomato). The note with it: preventive spray, 500 ppm of active ingredient, evaluated 7 days after inoculation.
A further data set has as its system Alternaria brassicae. As to the kind of experiment: In vivo preventive test on Alternaria brassicae (leaf spot on radish). The note with it: preventive spray, 500 ppm of active ingredient, grading 6 days after contamination. As to the method:
Radish plants (“Pernod Clair” variety), sown in starter cups on a 50/50 peat soil pozzolana substrate and grown at 17° C., are treated at the cotyledon stage by spraying with the active ingredient prepared as described above. Plants, used as controls, are treated with the mixture of acetone/tween/DMSO/water not containing the active material. After 24 hours, the plants are contaminated by spraying the cotyledons with an aqueous suspension of Alternaria brassicae spores (50 000 spores per mL). The spores are collected from a 15-day-old culture. The contaminated radish plants are incubated at 20° C. and at 100% relative humidity. Grading (% of efficacy) is carried out 6 days after the contamination, in comparison with the control plants.

A further data set relates to Pyricularia oryzae. The class given is in vivo. The note with it: rice, preventive spray, 500 ppm of active ingredient, grading 6 days after contamination.
Another data set relates to Leptosphaeria nodorum. The experiment in a line: In vivo preventive test on Leptosphaeria nodorum (wheat). The note with it: preventive spray, 500 ppm of active ingredient, evaluated 7-9 days after inoculation. How it is done: Solvent: 49 parts by weight of N,N-dimethylformamide Emulsifier: 1 part by weight of alkylaryl polyglycol ether To produce a suitable preparation of active compound, 1 part by weight of active compound is mixed with the stated amounts of solvent and emulsifier, and the concentrate is diluted with water to the desired concentration. To test for preventive activity, young plants are sprayed with a preparation of active compound at the stated rate of application. One day after this treatment, the plants are inoculated with an aqueous spore suspension of Leptosphaeria nodorum. The plants remain for 48 hours in an incubation cabinet at 22° C. and a relative atmospheric humidity of 100%. Then the plants are placed in a greenhouse at a temperature of approximately 22° C. and a relative atmospheric humidity of approximately 90%.

The term chromatographic logP denotes a lipophilicity value derived from retention on a column. Low values mean a more hydrophilic compound, high ones a more lipophilic compound. As a reminder, the logP is a log measure of how a compound divides between an organic and an aqueous phase. Read a high logP as higher lipophilicity.

As for `C[Si](C)(CNC(=O)c1cccnc1C(F)F)c1ccccc1` [Example 1, 2-(difluoromethyl)-N-{[dimethyl(phenyl)silyl]methyl}nicotinamide], the Efficacy with Pyrenophora teres [1] stood at 90%; in the data set on Septoria tritici it was 100%; with Puccinia recondita, 88%; in the data set with Pyrenophora teres [2] it was 79%; in the data set on Botrytis cinerea, 89%; in the data set with Uromyces appendiculatus, 100%. The figures for the Efficacy with Sphaerotheca fuliginea and in the data set with Alternaria solani were 98% and 95%, respectively. In [3], this compound yielded a chromatographic logP of 2.71.

Regarding `C[Si](C)(CN(C(=O)c1nccnc1C(F)(F)F)C1CC1)c1ccccc1F` [Example 14], the Efficacy with Alternaria brassicae is 95%; in the data set on Pyrenophora teres [1], 100%; with Septoria tritici it was 93%; in the data set with Puccinia recondita it was 98%; in the data set on Uromyces appendiculatus, 84%; in the data set on Sphaerotheca fuliginea, 98%. Besides, the logP in data set [3] was found to be 4.18.

Consider `C[Si](C)(CNC(=O)c1cccnc1C(F)F)c1ccccc1Cl` [Example 22], for which the Efficacy with Septoria tritici is reported as 96%; with Puccinia recondita, 100%; in the data set on Botrytis cinerea, 92%; in the data set with Uromyces appendiculatus, 96%; in the data set on Sphaerotheca fuliginea, 78%. The logP in [3] was found to be 3.06.

Regarding `CC1=C(C(=O)NC[Si](C)(C)c2ccccc2Cl)SCCO1` [Example 42], the Efficacy worked out at 100% in the data set with Septoria tritici, 72% with Puccinia recondita and 93% with Pyrenophora teres [2]. For the same compound, the logP in data set [3] amounted to 3.50.

As to `C[Si](C)(CN(C(=O)c1cccnc1C(F)F)C1CC1)c1ccc(F)cc1Cl` [Example 45], the Efficacy in the data set on Alternaria brassicae worked out at 90%; with Septoria tritici, 80%; with Puccinia recondita it was 75%; in the data set with Pyricularia oryzae, 83%; with Sphaerotheca fuliginea it was 83%. In addition, in data set [3], the log partition coefficient (logP) came out at 3.96.

For the compound `C[Si](C)(CN(C(=O)c1cccnc1Cl)C1CC1)c1ccc(F)cc1Cl` [Example 46], the Efficacy in the data set with Pyricularia oryzae was 92%. In addition, the logP in data set [3] is listed as 4.06.

`C[Si](C)(CN(C(=O)c1cccnc1C(F)F)C1CC1)c1ccc(Cl)cc1Cl` [Example 62]: the Efficacy is recorded as 100% with Pyrenophora teres [1]; 100% in the data set on Septoria tritici; 92% with Puccinia recondita; 93% in the data set on Pyrenophora teres [2]; 70% in the data set on Leptosphaeria nodorum; 79% in the data set with Sphaerotheca fuliginea. For the same compound, the Efficacy in the data set with Alternaria solani is 94%. For the same compound, the logP in data set [3] is 4.51.
